Where two headings read alike, the source gives them in different places.
Key:
[1] = test system: rats with middle cerebral artery occlusion (MCAO); assay: Infarct volume measurement (H&E staining); format: in vivo, Sprague Dawley rats; conditions: % of contralateral hemisphere; for Mean infarct volume (%): Example 2 crossover, Day 63
Method: Euthanasia and post-mortem processing: Infarct Volume analysis. After the last behavioral assessment, rats were anesthetized deeply with ketamine/xylazine (100 mg/kg ketamine, 10 mg/kg xylazine, i.p.) and perfused transcardially with normal saline (with heparin 2 unit/ml) followed by 4% paraformaldehyde or formalin on Day 63. Brains were harvested and processed for histological assessment. A subset of 10 brains per group was processed for infarct volume measurement (H&E staining).
Infarct measurement: Brains were embedded in paraffin and 5 micron thick coronal sections were cut using a microtome. Sections were stained with hematoxylin and eosin (H&E), using standard methods. Seven coronal sections (+4.7, +2.7, +0.7, −1.3, −3.3, −5.3 and −7.3, compared to bregma respectively) from each brain were photographed by a digital camera, and the infarct area on each slice was determined by NIH Image (Image J) using the “indirect method” (area of the intact contralateral [left] hemisphere−area of intact regions of the ipsilateral [right] hemisphere) to correct for brain edema. Infarct areas were then summed among slices and multiplied by slice thickness (the distance between sections) to give total infarct volume, which was expressed as a percentage of intact contralateral hemispheric volume.
Euthanasia and post-mortem processing: At day 70 after MCAO, rats were anesthetized as described in Example 2, above.
Infarct measurement: Infarct measurement was performed as described in Example 2, above.

[2] = 4-aminopyridine plasma levels 90 min after dosing (LC-MS/MS); format: in vivo, Sprague Dawley rats; conditions: Sprague Dawley, rat, oral, read-out: Mean (SE) 4-aminopyridine Plasma Level
Method: Blood sampling: After the on-drug behavior assessments were completed (Days 30, 32, 44, 46, 58 and 60), approximately 300 microliter blood sample was taken exactly 90 min after dosing to assess 4-AP plasma levels at that time. Blood was collected from the saphenous vein of each animal. Blood was collected into K3 EDTA tubes and centrifuged at 10,000 rpm for 10 minutes at 4 degrees C. Plasma was obtained, frozen and stored at approximately −80 C. Samples were analyzed for 4-AP levels. 4-AP concentration was determined using a validated liquid chromatography with tandem mass spectrometric detection method in positive electrospray mode.
Treatment groups: Animals had MCAO surgery and were allowed to recover for 56 days. Animals were then randomized into 2 groups based on their baseline behavior. Par oral dosing b.i.d. was initiated in the evening of Day 56 after MCAO. Behavior testing during dosing periods was started 1 hour after dosing. Blood was collected via saphenous vein just prior to and during treatment phases just after behavioral testing (90 minutes post dosing). All dosing was via gastric gavage, volume not to exceed 2 mL/kg.
Blood sampling: 300 microliter blood sample was collected from the saphenous vein of each animal on Day 56 just prior to the first dose and then exactly 90 min after the 6 dose at each dose level. Blood was collected, centrifuged, stored and analyzed as described in Example 2, above.

[3] = test system: rats with middle cerebral artery occlusion (MCAO); assay: Forelimb placing test after MCAO; format: in vivo, Sprague Dawley rats
[4] = test system: rats with middle cerebral artery occlusion (MCAO); assay: Hindlimb placing test after MCAO; format: in vivo, Sprague Dawley rats
[5] = cited from earlier work

Nc1ccncc1 [4-AP, 4-aminopyridine]
Mean infarct volume (%) ([1]; Group 1 (H, L, V)): 45.0 (±1.8) % | Mean infarct volume (%) ([1]; Group 2 (L, V, H)): 41.4 (±2.3) % | Mean infarct volume (%) ([1]; Group 3 (V, H, L)): 39.0 (±3.3) % | Mean (SE) Infarct Volume (%) ([1]; Example 17, 4-AP 0.5, 1 and 2 mg/kg b.i.d. Days 56-65, brains at day 70 after MCAO): 40.0 (2.3) % | concentration at 90 min ([2]; 0.5 mg/kg, Example 17 dose escalation, Dose Level 0.5 mg/kg b.i.d. p.o., 90 min after 6th dose): 68.3 ng/mL | concentration at 90 min ([2]; 0.63 mg/kg, Group 1, Phase 2, Low 0.63 mg/kg b.i.d. p.o., 90 min after dosing): 64 ng/mL | concentration at 90 min ([2]; 0.63 mg/kg, Group 2, Phase 1, Low 0.63 mg/kg b.i.d. p.o., 90 min after dosing): 78.1 ng/mL | concentration at 90 min ([2]; 0.63 mg/kg, Group 3, Phase 3, Low 0.63 mg/kg b.i.d. p.o., 90 min after dosing): 61.8 ng/mL | concentration at 90 min ([2]; 1 mg/kg, Example 17 dose escalation, Dose Level 1.0 mg/kg b.i.d. p.o., 90 min after 6th dose): 114 ng/mL | concentration at 90 min ([2]; 2 mg/kg, Example 17 dose escalation, Dose Level 2.0 mg/kg b.i.d. p.o., 90 min after 6th dose): 185 ng/mL | concentration at 90 min ([2]; 2 mg/kg, Group 1, Phase 1, High 2.0 mg/kg b.i.d. p.o., 90 min after dosing): 142 ng/mL | concentration at 90 min ([2]; 2 mg/kg, Group 2, Phase 3, High 2.0 mg/kg b.i.d. p.o., 90 min after dosing): 144 ng/mL | concentration at 90 min ([2]; 2 mg/kg, Group 3, Phase 2, High 2.0 mg/kg b.i.d. p.o., 90 min after dosing): 129 ng/mL | Forelimb placing compared to vehicle ([3]; Example 17, 0.5 mg/kg b.i.d. p.o., Day 59 post-MCAO, p<0.001): significantly improved in forelimb placing | Forelimb test compared to vehicle ([3]; Example 17, 1 mg/kg b.i.d. p.o., Day 62 post-MCAO, p<0.001): measureable improvement | Forelimb function compared to vehicle ([3]; Example 17, 2 mg/kg b.i.d. p.o., Day 65 post-MCAO, p<0.0001): significant improvements | Hind limb placing score compared to vehicle ([4]; Example 17, 0.5 mg/kg b.i.d. p.o., Day 59 post-MCAO): improved with the low dose but did not reach significance | Hind limb test compared to vehicle ([4]; Example 17, 1 mg/kg b.i.d. p.o., Day 62 post-MCAO, p<0.05): measureable improvement | Hind limb function compared to vehicle ([4]; Example 17, 2 mg/kg b.i.d. p.o., Day 65 post-MCAO, p<0.001): significant improvements | half life ([5]; Hayes et al., J. Clin. Pharmacol. 2003): 1 to 1.5 h | 4-AP plasma concentrations obtained in clinical studies ([5]; typical, (94 ng/mL^−1)): < 1 µM
